Results reported in PubChem BioAssay AID1259407 (Chemical Carcinogenesis Research Information System (CCRIS), 2018).
The source made the active and inactive calls. The rule behind the calls is not given here.

Tested on: CCRIS mutagenicity, Ames/micronucleus/aberration tests
Assay: CCRIS mutagenicity studies
[1] = Test System: AMES SALMONELLA TYPHIMURIUM, Strain/Indicator: TA100, Metabolic Activation: NONE, Method: PREINCUBATION

Row | Structure (SMILES) | mutagenic call (Test System: AMES SALMONELLA TYPHIMURIUM, Strain/Indicator: TA97, Metabolic Activation: HAMSTER, LIVER, S-9, AROCLOR 1254 (10 OR 30%), Method: PREINCUBATION) | mutagenic call (Test System: AMES SALMONELLA TYPHIMURIUM, Strain/Indicator: TA97, Metabolic Activation: NONE, Method: PREINCUBATION) | mutagenic call (Test System: AMES SALMONELLA TYPHIMURIUM, Strain/Indicator: TA97, Metabolic Activation: RAT, LIVER, S-9, AROCLOR 1254 (10 OR 30%), Method: PREINCUBATION) | mutagenic call (Test System: AMES SALMONELLA TYPHIMURIUM, Strain/Indicator: TA98, Metabolic Activation: HAMSTER, LIVER, S-9, AROCLOR 1254 (10 OR 30%), Method: PREINCUBATION) | mutagenic call (Test System: AMES SALMONELLA TYPHIMURIUM, Strain/Indicator: TA98, Metabolic Activation: NONE, Method: PREINCUBATION) | mutagenic call (Test System: AMES SALMONELLA TYPHIMURIUM, Strain/Indicator: TA98, Metabolic Activation: RAT, LIVER, S-9, AROCLOR 1254 (10 OR 30%), Method: PREINCUBATION) | mutagenic call (Test System: AMES SALMONELLA TYPHIMURIUM, Strain/Indicator: TA100, Metabolic Activation: HAMSTER, LIVER, S-9, AROCLOR 1254 (10 OR 30%), Method: PREINCUBATION) | mutagenic call [1] | mutagenic call (Test System: AMES SALMONELLA TYPHIMURIUM, Strain/Indicator: TA100, Metabolic Activation: RAT, LIVER, S-9 AROCLOR 1254 (10 OR 30%), Method: PREINCUBATION) | mutagenic call (Test System: AMES SALMONELLA TYPHIMURIUM, Strain/Indicator: TA1535, Metabolic Activation: HAMSTER, LIVER, S-9, AROCLOR 1254 (10 OR 30%), Method: PREINCUBATION) | mutagenic call (Test System: AMES SALMONELLA TYPHIMURIUM, Strain/Indicator: TA1535, Metabolic Activation: NONE, Method: PREINCUBATION) | mutagenic call (Test System: AMES SALMONELLA TYPHIMURIUM, Strain/Indicator: TA1535, Metabolic Activation: RAT, LIVER, S-9, AROCLOR 1254 (10 OR 30%), Method: PREINCUBATION) | mutagenic call (Test System: MOUSE LYMPHOMA, Strain/Indicator: L5178Y (TK+/TK-), Metabolic Activation: NONE, Method: SUSPENSION/PLATE) | mutagenic call (Test System: MOUSE LYMPHOMA, Strain/Indicator: L5178Y (TK+/TK-), Metabolic Activation: RAT, LIVER, S-9, AROCLOR 1254, Method: SUSPENSION/PLATE)
1 | Nc1cc(S(=O)(=O)O)ccc1O | inactive; negative | inactive; negative | inactive; negative | inactive; negative | inactive; negative | inactive; negative | inactive; negative | inactive; negative | inactive; negative | inactive; negative | inactive; negative | inactive; negative | – | –
2 | CC(=O)OCC12OOC1(C)c1ccccc1O2 (stereo not given) | – | – | – | – | – | – | – | active; positive | – | – | – | – | – | –
3 | O=S(=O)(C(Cl)(Cl)Cl)C(Cl)(Cl)Cl | – | – | – | – | – | – | – | – | – | – | – | – | inactive; negative. reevaluation of results: positive | inactive; negative. reevaluation of results: negative
